# Laboratory results as given in US10166271B2, “Methods for promoting hair growth” (THE REGENTS OF THE UNIVERSITY OF CALIFORNIA, priority 2006, dated 2019).
# Key:
# CRF-OE mice = assay type: in vivo; conditions: for Treated mice that died / did not survive / Hair growth: adult female CRF-OE mice; for Treated mice that died / did not survive: groups of five, minoxidil: a few days after the first injection, NBI 27914: within four weeks following the final injection; for Hair growth: 2 and 4 weeks (minoxidil) or four weeks (NBI 27914, surviving mouse) after the final injection
# From the text: The NBI 27914 administration regimen was as previously described by Martinez et al. (J. Pharmacol. Exp. Ther., 301:611-617, 2002).
# young CRF-OE mice = conditions: young CRF-OE mice; over a two-month period
# Experimental: Each subcutaneous injection is given in a single puncture located along or about the midline of the back. Age-matched CRF-OE mice similarly injected with 0.1 ml vehicle alone are used as negative controls. Astressin B fragments are as described in Example 8. Alternatively, topical astressin B can be applied to the mouse's back, for example 0.05 mg, 0.5 mg, 5 mg, 50 mg, or 500 mg of an astressin B fragment once daily for at least five consecutive days
# Hair growth (or hair loss) is assessed using the hair growth scale described in Example 1. The general conditions of treated and control mice, such as weight, back skin thickness, hair luster, skin wounds and indurations, are noted.
# [1] = system: male patients between 18 and 41 years of age; post-menopausal women; conditions: cited from earlier work
# [2] = system: male and female androgenetic patients; conditions: cited from earlier work
# [3] = oral 1 mg/day for 2 years, male patients 18-41 years
Compound,Treated mice that died / did not survive (CRF-OE mice),Hair growth (CRF-OE mice),Loss of hair compared with astressin B-treated mice (young CRF-OE mice),"Side effects ([1]; human, in vivo)","Cases in which further hair loss was prevented [1, 3]","Cases with visible hair growth [1, 3]",Efficacy of similar treatment regimen ([1]; post-menopausal women),"Treated mice with induced patches of pigmentation (CRF-OE mice; sc 1% in 0.1 ml once per day x 10 days, by two weeks after the final injection, still-living mice)","Side effects ([2]; human, in vivo)",Patients with fine hair growth (fraction) ([2]; two percent topical),Patients with no hair growth (fraction) ([2]; two percent topical),Patients with visible hair growth (fraction) ([2]; two percent topical)
CCCN(CC1CC1)c1nc(C)nc(Nc2c(Cl)cc(Cl)cc2Cl)c1Cl [NBI 27914],4 out of 5,small areas of patchy hair growth,substantially more loss of hair,–,–,–,–,–,–,–,–,–
CC(C)(C)NC(=O)[C@H]1CC[C@H]2[C@@H]3CC[C@H]4NC(=O)C=C[C@]4(C)[C@H]3CC[C@]12C [finasteride],–,–,–,"lack of libido, lack of potency, and mild reduction in semen",83%,66%,ineffective,–,–,–,–,–
Nc1cc(N2CCCCC2)nc(N)[n+]1[O-] [minoxidil],one treated mouse died,Moderate hair growth in the pigmented patches,substantially more loss of hair,–,–,–,–,3 of the 4,scalp irritation and increased facial hair,approximately ⅓,approximately ⅓,approximately ⅓
